Experimental data: patent publication US9550796B2, “Pyrrolopyrrolone derivatives and their use as BET inhibitors” (NOVARTIS AG, priority 2013, dated 2017)

Assays:
THP-1 = assay: Cell growth inhibition assay (CellTiter-Glo), THP-1; format: cell-based, human; conditions: THP-1 cells, 4 days; for GI50: Homo sapiens, 96 h, half-maximal growth inhibition; for THP-1 TGI: total growth inhibition
Description: (§1) Cell Growth Inhibition Assay
(§2) The human leukemia cell lines MV-4-11, THP-1 and K-562 were employed to characterize the effect of BET inhibitors on cellular proliferation and viability. Cells were obtained from the American Type Culture Collection (ATCC) and cultured at 37° C. in a humidified 5% CO2 incubator in the following media: MV-4-11: DMEM high glucose (Animed #1-26F01-I), 10% FCS (Animed #2-01F26-I), 4 mM L-Glutamine (Animed #5-10K50), 1 mM Sodium Pyruvate (Animed # G03625P), 1× Penicillin-Streptomycin (Animed # F12478P); K-562: Iscove's MEM (Animed #1-28F16-I), 10% FCS (Animed #2-01F26-I), 4 mM L-Glutamine (Animed #5-10K50), 1× Penicillin-Streptomycin (Animed # F12478P); THP-1: RPMI-1640 (Animed #1-41F01-I), 10% FCS (Animed #2-01F26-I), 2 mM L-Glutamine (Animed #5-10K50), 10 mM HEPES (Animed #5-31F100), 1 mM Sodium Pyruvate (Animed # G03625P), 1× Penicillin-Streptomycin (Animed # F12478P). The AML lines MV-4-11 and THP-1 are very sensitive to BET inhibitors and show massive cell death upon BET inhibition (Zuber et al., Nature, 478 (2011), 524-8). Compound-mediated suppression of cell proliferation/viability was assessed by quantification of cellular ATP levels using the CellTiter-Glo (CTG) reagent (Promega). Briefly, cells were seeded in 20 μl fresh medium into 384-well plates, followed by addition of 5 μL medium containing compound dilutions at 5-fold their final intended concentration. Dose-response effects were assessed by 3-fold serial dilutions of the test compound, starting at 10 μM. Following incubation of the cells for 4 days at 37° C. and 5% CO2, the effect of inhibitors on cell viability was quantified following addition of 20 μl CTG and luminescence quantification (integration time: 100 ms) as per vendor manual, using a correspondingly equipped Tecan M200 multi-mode platereader (TECAN, Switzerland). For data analysis, the assay background value determined in wells containing medium, but no cells, was subtracted from all data points. To enable differentiation of cytotoxic from cytostatic compounds, the number of viable cells is assessed relative to that observed at the time of compound addition using a separate cell plate (day 0). The effect of a particular test compound concentration on cell proliferation/viability is expressed as percentage of the background- and day 0-corrected luminescence reading obtained for cells treated with vehicle only (DMSO, 0.1% final concentration), which is set as 100%, whereas that luminescence reading for wells containing medium is set as −100%. Compound concentrations leading to half-maximal (IC50) and total growth inhibition (TGI) were determined using standard four parameter curve fitting.

CREBBP = CREBBP (Homo sapiens (Human), UniProt Q92793); assay: AlphaScreen in-vitro binding assay for CREBBP; conditions: 324 nM His-CREBBP (1081-1197), acetyl-histone H4 (AcK 5, 8, 12) peptide
CREBBP, sequence (Q92793 1081-1197): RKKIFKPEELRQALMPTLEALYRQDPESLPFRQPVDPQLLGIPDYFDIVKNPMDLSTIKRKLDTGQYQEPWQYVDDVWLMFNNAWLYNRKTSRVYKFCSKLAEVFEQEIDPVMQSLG
Description: AlphaScreen In-Vitro Binding Assay for CREBBP
In order to assess bromodomain selectivity, we set up a binding assay using the bromodomain encoded by the CREBBP gene. […] The assay was started by stepwise addition of 4.5 μL per well of bromo domain protein (50 mM HEPES, pH 7.5, 0.005% Tween20, 0.02% BSA, 150 mM NaCl, 324 nM His-CREBBP (1081-1197) (custom production at Viva Biotech Ltd.)) and 4.5 μL per well of peptide solution (50 mM HEPES, pH 7.5, 0.005% Tween20, 0.02% BSA, 150 mM NaCl, 120 nM acetyl-histone H4 (AcK 5, 8, 12) (Biosyntan GmbH)). Reactions were incubated at 30° C. for 35 minutes. Subsequently 4.5 μL per well detection mix (50 mM HEPES, pH 7.5, 0.005% Tween20, 0.02% BSA, 150 mM NaCl, 45 μg/ml Ni-chelate acceptor beads, 45 μg/mL streptavidin-donor beads) (Perkin Elmer)) were added. After 60 minutes incubation at room temperature, plates were measured in a Perkin Elmer EnVision multilabel reader. IC50 values were determined from percent inhibition values at different compound concentrations by non-linear regression analysis.
Test compounds were dissolved in DMSO (10 mM) and transferred into 1.4 mL flat bottom or V-shaped Matrix tubes carrying a unique 2D matrix. The stock solutions were stored at […] if not used immediately. For the test procedure the vials were defrosted and identified by a scanner whereby a working sheet was generated that guided the subsequent working steps. Compound dilutions were made in 96 well plates. This format enabled the assay of maximally […] at 8 concentrations (single points) including 4 reference compounds, if desired (known BET inhibitors from the prior art, for this and other assays of the type disclosed herein). The dilution protocol included the production of “pre-dilution plates”, “master plates” and “assay plates”.
Polypropylene 96-well plates were used as pre-dilution plates. A total of 4 pre-dilution plates were prepared including 10 test compounds each on the plate positions A1-A10, one standard compound at A11 and one DMSO control at […]. All dilution steps were done on a HamiltonSTAR robot.
30 μL of individual compound dilutions including standard compound and controls of the 4 “pre-dilution plates” were transferred into a 384-well “master plate” including the following concentrations 10000, […], 1000, 300, 100, 30, 10 and 3 μM, respectively in 90% of DMSO.
Identical “assay plates” were then prepared by pipetting 50 nL each of compound dilutions of the “master plates” into 384-well “assay plates” by means of a HummingBird 384-channel dispenser. These plates were used directly for the assay which was performed in a total volume of 13.55 μL.

K-562 = assay: Cell growth inhibition assay (CellTiter-Glo), K-562; format: cell-based, human; conditions: K-562 cells, 4 days; for GI50: Homo sapiens, K562, 96 h, half-maximal growth inhibition; for K-562 TGI: total growth inhibition
Description: as §1, §2

BRD4 = BRD4 (Homo sapiens (Human), UniProt O60885); assay: TR-FRET in-vitro binding assay for BRD4; conditions: 45 nM His-Brd4(44-477), acetyl-histone H4 (AcK 5, 8, 12, 16) peptide
Description: (§3) TR-FRET In-Vitro Binding Assays for BRD2, BRD3, and BRD4: All assays were performed in 384-well microtiter plates. […] Liquid handling and incubation steps were done on an Innovadyne Nanodrop Express equipped with a robotic arm (Thermo CatX, Perkin Elmer/Caliper Twister II) and an incubator (Liconic STX40, Thermo Cytomat 2C450). The assay plates were prepared by addition of 50 nl per well of compound solution in 90% DMSO HummingBird nanodispenser (Zinsser Analytic). […] Reactions were incubated at 30° C. for 35 minutes. […] After 35 minutes incubation at 30° C., plates were measured in a Perkin Elmer EnVision multilabel reader. […] The stock solutions were stored at […] if not used immediately. For the test procedure the vials were defrosted and identified by a scanner whereby a working sheet was generated that guided the subsequent working steps. Compound dilutions were made in 96 well plates. This format enabled the assay of maximally […] at 8 concentrations (single points) including 4 reference compounds, if desired (known BET inhibitors from the prior art, for this and other assays of the type disclosed herein). The dilution protocol included the production of “pre-dilution plates”, “master plates” and “assay plates”. Polypropylene 96-well plates were used as pre-dilution plates. […] All dilution steps were done on a HamiltonSTAR robot. […] Identical “assay plates” were then prepared by pipetting 50 nL each of compound dilutions of the “master plates” into 384-well “assay plates” by means of a HummingBird 384-channel dispenser. These plates were used directly for the assay which was performed in a total volume of 13.55 μL.

BRD3 = BRD3 (Homo sapiens (Human), UniProt Q15059); assay: TR-FRET in-vitro binding assay for BRD3; conditions: 45 nM His-Brd3(20-477), acetyl-histone H4 (AcK 5, 8, 12, 16) peptide
BRD3, sequence (Q15059 20-477): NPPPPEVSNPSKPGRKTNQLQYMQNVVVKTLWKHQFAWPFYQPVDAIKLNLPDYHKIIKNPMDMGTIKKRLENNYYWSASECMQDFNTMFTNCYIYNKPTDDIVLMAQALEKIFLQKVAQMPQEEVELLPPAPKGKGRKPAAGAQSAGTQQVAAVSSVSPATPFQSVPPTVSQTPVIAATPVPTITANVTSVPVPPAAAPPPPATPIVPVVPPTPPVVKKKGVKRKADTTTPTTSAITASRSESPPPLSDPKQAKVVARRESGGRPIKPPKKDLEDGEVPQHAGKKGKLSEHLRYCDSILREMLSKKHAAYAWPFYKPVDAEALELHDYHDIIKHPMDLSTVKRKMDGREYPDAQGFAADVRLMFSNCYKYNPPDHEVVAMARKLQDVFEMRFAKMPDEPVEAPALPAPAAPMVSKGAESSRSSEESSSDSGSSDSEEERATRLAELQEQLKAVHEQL
Description: as §3

MV-4-11 = assay: Cell growth inhibition assay (CellTiter-Glo), MV-4-11; format: cell-based, human; conditions: MV-4-11 cells, 4 days; for GI50: Homo sapiens, MV4-11, 96 h, half-maximal growth inhibition; for MV-4-11 TGI: total growth inhibition
Description: as §1, §2

Row | SMILES | GI50 (THP-1) [nM] | IC50 (CREBBP) [nM] | GI50 (K-562) [nM] | IC50 (BRD4) [nM] | IC50 (BRD3) [nM] | GI50 (MV-4-11) [nM] | THP-1 TGI (THP-1) [nM] | K-562 TGI (K-562) [nM] | MV-4-11 TGI (MV-4-11) [nM]
1 | CNC(=O)Nc1cn(C)c2c1C(=O)N(c1cc(C)c3nnn(C)c3c1)C2c1ccc(Cl)cc1 (stereo not drawn) [Example 114, 1-(6-(4-chlorophenyl)-5-(1,4-dimethyl-1H-benzo[d][1,2,3]triazol-6-yl)-1-methyl-4-oxo-1,4,5,6-tetrahydropyrrolo[3,4-b]pyrrol-3-yl)-3-methylurea] | 27.1 | 1300 | 499 | 34 | 38 | 26.8 | 105.2 | >10000 | 66
2 | Cc1cc(N2C(=O)c3c(C4CN(C)C4)cn(C)c3C2c2ccc(Cl)cc2)cn2c(C)nnc12 (stereo not drawn) [Example 118, 6-(4-chlorophenyl)-5-(3,8-dimethyl-[1,2,4]triazolo[4,3-a]pyridin-6-yl)-1-methyl-3-(1-methylazetidin-3-yl)-5,6-dihydropyrrolo[3,4-b]pyrrol-4(1H)-one] | 956 | 32300 | 3830 | 21 | 22 | 374 | 1810 | >10000 | 591.5
3 | Cc1cc(N2C(=O)c3c(C4CC4)c(C4=CCOCC4)n(C)c3C2c2ccc(Cl)cc2)cn2c(C)nnc12 (stereo not drawn) [Example 119, 6-(4-chlorophenyl)-3-cyclopropyl-2-(3,6-dihydro-2H-pyran-4-yl)-5-(3,8-dimethyl-[1,2,4]triazolo[4,3-a]pyridin-6-yl)-1-methyl-5,6-dihydropyrrolo[3,4-b]pyrrol-4(1H)-one] | 1.57 | 1700 | 11.7 | < 11 | < 11 | 1.24 | 3.665 | 3740 | 3.76

The remaining compounds from weak to strong by GI50 (THP-1), led by results:

Row | GI50 (THP-1) [nM] | IC50 (CREBBP) [nM] | GI50 (K-562) [nM] | IC50 (BRD4) [nM] | IC50 (BRD3) [nM] | GI50 (MV-4-11) [nM] | SMILES | THP-1 TGI (THP-1) [nM] | K-562 TGI (K-562) [nM] | MV-4-11 TGI (MV-4-11) [nM]
4 | 184 | 13700 | 1490 | 14 | 17 | 124 | CC(=O)N1CC(c2cn(C)c3c2C(=O)N(c2cc(C)c4nnc(C)n4c2)C3c2ccc(Cl)cc2)C1 (stereo not drawn) [Example 117, 3-(1-acetylazetidin-3-yl)-6-(4-chlorophenyl)-5-(3,8-dimethyl-[1,2,4]triazolo[4,3-a]pyridin-6-yl)-1-methyl-5,6-dihydropyrrolo[3,4-b]pyrrol-4(1H)-one] | 354 | >10000 | 217.5
5 | 59.5 | 4200 | 288 | 26 | 34 | 37.8 | Cc1cc(N2C(=O)c3c(NC(=O)CN(C)C)cn(C)c3C2c2ccc(Cl)cc2)cn2c(C)nnc12 (stereo not drawn) [Example 116, N-(6-(4-chlorophenyl)-5-(3,8-dimethyl-[1,2,4]triazolo[4,3-a]pyridin-6-yl)-1-methyl-4-oxo-1,4,5,6-tetrahydropyrrolo[3,4-b]pyrrol-3-yl)-2-(dimethylamino)acetamide] | 123 | >10000 | 87.45
6 | 29.3 | 3900 | 157 | 26 | 36 | 16.1 | Cc1cc(N2C(=O)c3c(NC(=O)CCN(C)C)cn(C)c3C2c2ccc(Cl)cc2)cc2c1nnn2C (stereo not drawn) [Example 115, N-(6-(4-chlorophenyl)-5-(1,4-dimethyl-1H-benzo[d][1,2,3]triazol-6-yl)-1-methyl-4-oxo-1,4,5,6-tetrahydropyrrolo[3,4-b]pyrrol-3-yl)-3-(dimethylamino)propanamide] | 79 | >10000 | 25.7
7 | 12.9 | 1600 | 72 | 13 | 15 | 13.6 | CC(=O)Nc1cn(C)c2c1C(=O)N(c1cc(C)c3nnn(C)c3c1)C2c1ccc(Cl)cc1 (stereo not drawn) [Example 113, N-(6-(4-chlorophenyl)-5-(1,4-dimethyl-1H-benzo[d][1,2,3]triazol-6-yl)-1-methyl-4-oxo-1,4,5,6-tetrahydropyrrolo[3,4-b]pyrrol-3-yl)acetamide] | 30.35 | >10000 | 27.25
